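Grown in 96-well plates, cells were treated for 48 hours with each compound at five concentrations. Insufficient inhibition: endpoint recorded as highest concentration tested. GI50: concentration for 50% inhibition of growth.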 Calls of active or inactive are those of the source. Cut-off read from the data, not from the text of the source: active = GI50 up to about 1.1 µM and inactive = higher.
Columns and labels:
Experiment in all cases: NCI anticancer screen, dose series, 48 h
[1] = tested on: CCRF-CEM
[2] = tested on: OVCAR-8
[3] = tested on: NCI-H522
[4] = tested on: HCC 2998
[5] = tested on: NCI-H460
[6] = tested on: Malme-3M
[7] = tested on: LOX IMVI
[8] = tested on: UACC-62
[9] = tested on: SK-MEL-5
[10] = tested on: M14
[11] = tested on: U-251
[12] = tested on: EKVX
[13] = tested on: HCT-116
[14] = tested on: UO-31
[15] = tested on: RPMI-8226
[16] = tested on: SF-268
[17] = tested on: HCT-15
[18] = tested on: SF-295
[19] = tested on: UACC-257
[20] = tested on: OVCAR-3

Structure (SMILES)	GI50 [1]	GI50 [2]	GI50 [3]	GI50 [4]	GI50 [5]	GI50 [6]	GI50 [7]	GI50 [8]	GI50 [9]	GI50 [10]	GI50 [11]	GI50 [12]	GI50 [13]	GI50 [14]	GI50 [15]	GI50 [16]	GI50 [17] [µM]	GI50 [18]	GI50 [19]	GI50 [20]
O=C1N(C2CCCCC2)CC12CCCCC2	> 100 µM (inactive)	> 100 µM (inactive)	> 100 µM (inactive)	> 100 µM (inactive)	> 100 µM (inactive)	> 100 µM (inactive)	> 100 µM (inactive)	> 100 µM (inactive)	> 100 µM (inactive)	> 100 µM (inactive)	> 100 µM (inactive)	> 100 µM (inactive)	> 100 µM (inactive)	> 100 µM (inactive)	> 100 µM (inactive)	> 100 µM (inactive)	> 100	–	–	–
CC(C)=CCN1c2ccc(Cl)cc2NC(=O)CC1C (configuration not stated)	38.6 µM (inactive)	19.1 µM (inactive)	12 µM (inactive)	44.4 µM (inactive)	17.5 µM (inactive)	20.3 µM (inactive)	17.8 µM (inactive)	–	18 µM (inactive)	17.8 µM (inactive)	27.5 µM (inactive)	25.8 µM (inactive)	18.4 µM (inactive)	31.6 µM (inactive)	22.1 µM (inactive)	34.7 µM (inactive)	31.4	35.1 µM (inactive)	21.2 µM (inactive)	18.3 µM (inactive)
CCOC(=O)/C(=C/c1ccc[nH]1)P(=O)(OCC)OCC	> 100 µM (inactive)	> 100 µM (inactive)	> 100 µM (inactive)	> 100 µM (inactive)	> 100 µM (inactive)	> 100 µM (inactive)	> 100 µM (inactive)	> 100 µM (inactive)	> 100 µM (inactive)	> 100 µM (inactive)	> 100 µM (inactive)	> 100 µM (inactive)	> 100 µM (inactive)	> 100 µM (inactive)	> 100 µM (inactive)	> 100 µM (inactive)	–	> 100 µM (inactive)	> 100 µM (inactive)	> 100 µM (inactive)
Cc1ccc(N2Cc3c(ccc4ccccc34)OP2(=O)Oc2ccc(Cl)c(C)c2)cc1 (configuration not stated)	> 93.3 µM (inactive)	> 100 µM (inactive)	39.9 µM (inactive)	> 100 µM (inactive)	67.5 µM (inactive)	> 100 µM (inactive)	> 100 µM (inactive)	> 100 µM (inactive)	> 100 µM (inactive)	–	> 100 µM (inactive)	> 100 µM (inactive)	26.1 µM (inactive)	20.3 µM (inactive)	10 µM (inactive)	> 100 µM (inactive)	13.8	> 51.2 µM (inactive)	> 100 µM (inactive)	> 31.6 µM (inactive)
COc1ccc(N(C)C(=O)N(C)c2ccc([N+](=O)[O-])cc2)cc1	23.9 µM (inactive)	71 µM (inactive)	23.8 µM (inactive)	33 µM (inactive)	25.8 µM (inactive)	36.2 µM (inactive)	33.1 µM (inactive)	33.9 µM (inactive)	38.8 µM (inactive)	34 µM (inactive)	30.4 µM (inactive)	65.2 µM (inactive)	27.4 µM (inactive)	41.4 µM (inactive)	51.1 µM (inactive)	82 µM (inactive)	30.1	–	26.1 µM (inactive)	26.7 µM (inactive)
Oc1cc(O)c2c(c1)O[C@H](c1ccc(O)c(O)c1)[C@@H](O)C2 [CIANIDANOL]	> 100 µM (inactive)	> 100 µM (inactive)	> 100 µM (inactive)	> 100 µM (inactive)	> 100 µM (inactive)	> 100 µM (inactive)	> 100 µM (inactive)	–	> 100 µM (inactive)	> 100 µM (inactive)	> 100 µM (inactive)	> 100 µM (inactive)	> 100 µM (inactive)	> 100 µM (inactive)	> 100 µM (inactive)	> 100 µM (inactive)	> 100	> 100 µM (inactive)	> 100 µM (inactive)	> 100 µM (inactive)

Source: ChEMBL document CHEMBL1201862, “PubChem BioAssay data set” (2004)
